Assay results from article PMC7480271, “A molecular-logic gate for COX-2 and NAT based on conformational and structural changes: visualizing the progression of liver disease” (Chemical Science, 2020).

Biological target: NAT (N-acetyltransferase)
Assay: Kd measurement (Fig. S8, method not shown); fluorescence titration and 1H NMR of acetylation by NAT

## COc1ccc2c(c1)c(CC(=O)NCCCCN1C(=O)c3cccc4cc(N)cc(c34)C1=O)c(C)n2C(=O)c1ccc(Cl)cc1 [3IAN4]
  Kd: 2230 nM
